ChEMBL document CHEMBL1138660, “Contribution of ionization and lipophilicity to drug binding to albumin: a preliminary step toward biodistribution prediction” (J Med Chem, 2004)

Legend:
[1] = human, plasma
physchem [2] = conditions: buffer, pH 7.4
Description: Distribution coeeficient for the compound at pH7.4 (Log D7.4)

physchem [3] = test: physchem
Description: pKa value of the compound

Row | Compound | B(DPB) [1] | logD (physchem [2]) | pKa (physchem [3])
1 | CCCC(=O)Nc1ccc(OCC(O)CNC(C)C)c(C(C)=O)c1 (centres undefined) [ACEBUTOLOL] | 0% | – | –
2 | NS(=O)(=O)c1cc(C(=O)O)c(NCc2ccco2)cc1Cl [FUROSEMIDE] | 87.2% | – | –
3 | CN(Cc1cnc2nc(N)nc(N)c2n1)c1ccc(C(=O)N[C@@H](CCC(=O)O)C(=O)O)cc1 [METHOTREXATE] | 49.9% | -2.52 | –
4 | COc1ccc2cc([C@H](C)C(=O)O)ccc2c1 [NAPROXEN] | > 95% | – | –
5 | COC(=O)C1=C(C)NC(C)=C(C(=O)OCCN(C)Cc2ccccc2)C1c1cccc([N+](=O)[O-])c1 (centres undefined) [NICARDIPINE] | 93.4% | 4.25 | 7.17
6 | CNC(=C[N+](=O)[O-])NCCSCc1ccc(CN(C)C)o1 [RANITIDINE] | 3.9% | -0.48 | 8.48
7 | CN1C(C(=O)Nc2ccccn2)=C(O)c2sccc2S1(=O)=O [TENOXICAM] | 89.6% | -0.32 | 4.95
